Experimental data taken from patent publication US9433616B2, “Methods and compositions for decreasing saliva production” (priority 2005, dated 2016).

Columns and labels:
[1] = tested on: muscarinic receptors in the muscles of the eye; conditions: cited from earlier work
[2] = tested on: salivation in patients with Parkinson's disease; conditions: in vivo; cited from earlier work
[3] = tested on: clozapine-induced sialorrhea; conditions: in vivo; cited from earlier work
[4] = tested on: Parkinson's Disease (PD) patients suffering from sialorrhea; conditions: human, in vivo
Description: They were instructed to apply the drops to their tongues on an as needed basis.

[5] = tested on: dryness of the mouth in human subjects; conditions: in vivo
Description: This was an evaluation of the placebo and drug-containing disks conducted in a closed room while sitting and carrying on an otherwise normal conversation.
No food or drink intake for approximately 2 hours before test. One disk was inserted in the mouth between gum and cheek on the lower right quadrant of mouth.
All sat in a comfortable room and had not eaten for at least one hour before.

[6] = tested on: Parkinson's Disease (PD) patients complaining of sialorrhea; conditions: human, in vivo, po
Description: The aim was to assess personal impression by the patients of their sialorrhea symptoms, including, drooling, speech performance, and social interference, as well as the presence of side effects, such as blurred vision, confusion, somnolence, tachycardia, hypotension, or any other discomforting sensation. The patients were evaluated for 2 hours in an outpatient clinic while resting in comfortable armchairs. They rated themselves on a visual analog scale by marking a line representing the amount of disability incurred by their sialorrhea both before and after the treatment by responding to the question: “How would you grade the effect of the drops that you were administered on your sialorrhea?”
The patients were fluctuating PD patients evaluated in the ON state in the morning, having eaten no food for one hour before the test. […] The patients were instructed to perform some chewing like movements in order to distribute the drug homogeneously. The patients were instructed to fill the visual-analogical scale 1 hour after drug intake. In addition, they were asked about the latency of the effect, if any, and if the effect persisted before leaving.

[7] = tested on: salivary drying in healthy volunteers; conditions: in vivo
Description: The time of first noticeable dryness in the mouth and the time to complete disintegration of the film were noted. Comments about adverse events, taste, and tolerance were also recorded by the participants.
The secondary aims of this study were to determine: time of first noticeable dryness in the mouth, time to complete disintegration of the film, and the acceptability and tolerance of the bioadhesive buccal films by the subject.
A blinded randomized crossover study in healthy volunteers.
In each treatment, the product was blind labeled.
A thin film was removed from an individually wrapped pouch and placed in the inner cheek opposite the molars nearest to the submandibular gland. It was positioned with the fingers and the mucoadhesive property facilitated its adhesion.
Dissolve period: the dissolve period of the film was noted. It was defined as the time after which the film was no longer felt in the oral cavity.
The volunteer recorded the tolerance to the buccal mucosa and overall feel during testing.

[8] = tested on: sialorrhea in PD patients; conditions: human, in vivo
[9] = tested on: excessive sialorrhea in children with developmental disabilities; conditions: cited from earlier work

## CN(C)CCOC(=O)C(c1ccccc1)C1(O)CCCC1 (stereo not shown) [cyclopentolate]
[1]; eye drops, some effects may persist for up to several days
  duration of effect: 8 h

## CN1[C@@H]2CC[C@H]1C[C@@H](OC(=O)C(CO)c1ccccc1)C2 (stereo partly shown) [atropine]
[1]; in vivo
  time of peak mydriasis effect: 30 to 40 min
[2]
  effect after 30 minutes: No effect was noted
  time results first observed after initial treatment: three

## CC(C)[N+]1(C)[C@@H]2CC[C@H]1C[C@@H](OC(=O)C(CO)c1ccccc1)C2 (stereo partly shown) [ipratropium]
[3]
  clinical response: partial yet clinically meaningful response
  time until effect of the spray wore off: 2 to 8 h

## CCN(Cc1ccncc1)C(=O)C(CO)c1ccccc1 (stereo not shown) [tropicamide, N-ethyl-N-(4-pyridylmethyl) tropamide]
[4]
  taste tolerance: complained of the taste of the medication
[5]; human
  time local numbness first noticed: 20 min
[5]
  change in pupil size: no obvious change in pupil size
[6]
  effect on heart rate (tachycardia), confusion, somnolence: did not affect heart rate (cause tachycardia), confusion, or somnolence
  photosensitivity complaints: No complaint of photosensitivity
  side effects or complications: None of the patients developed side effects or complications
[7]
  tolerance: acceptable
[8]
  side effects: No side effects were observed

## C[N+]1(C)CCC(OC(=O)C(O)(c2ccccc2)C2CCCC2)C1 (stereo not drawn) [glycopyrrolate, 3-(α-cyclopentylmandeloy(osy)-1,1-dimethylpyrrolidinium bromide]
[9]
  control of excessive sialorrhea: effective
[9]; systemic administration
  treated individuals with substantial adverse systemic side effects requiring discontinuation: approximately 20%
